Test results as given in patent US10640495B2, “Heterocycle derivatives having TrkA inhibitory activity” (Shionogi & Co., Ltd., priority 2015, dated 2020).

target: human TrkA (Homo sapiens (Human), UniProt P04629); experiment: Human TrkA inhibition assay (Test Example 2); assay type: biochemical; details: Table 153, human TrkA inhibition; read-out: IC50
Summary of the method: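 Mobility-shift readout of phosphorylated versus unphosphorylated fluorescent peptide gave conversion ratio, normalized to DMSO and no-enzyme wells; IC50 by logistic fit of 10- or 15-point 3-fold dilutions. Conditions: 1 nmol/L enzyme, 15 min compound preincubation, then 500 μmol/L ATP plus 1.5 μmol/L peptide, 120 min, 37 °C.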

human TrkA, sequence (P04629 440-796): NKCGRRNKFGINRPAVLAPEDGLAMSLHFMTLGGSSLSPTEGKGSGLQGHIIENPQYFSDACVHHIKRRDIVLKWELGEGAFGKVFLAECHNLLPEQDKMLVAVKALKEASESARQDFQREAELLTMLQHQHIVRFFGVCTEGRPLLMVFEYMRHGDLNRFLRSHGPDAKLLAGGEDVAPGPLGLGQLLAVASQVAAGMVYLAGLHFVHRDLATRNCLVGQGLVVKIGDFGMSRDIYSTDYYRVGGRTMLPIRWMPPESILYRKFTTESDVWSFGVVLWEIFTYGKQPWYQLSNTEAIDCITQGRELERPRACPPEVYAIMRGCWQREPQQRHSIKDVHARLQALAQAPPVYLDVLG

Row | Compound | IC50 [µM]
1 | COCCN1C[C@@H](NC(=O)Nc2c(C)c(-c3cnn(C)c3)nn2-c2ccccc2)[C@H](c2cccc(F)c2)O1 (racemic) [Compound I-139] | < 0.1
2 | COCCN1C[C@@H](NC(=O)Nc2c(C)c(-c3ccnc(N=S(C)(C)=O)c3)nn2-c2ccccc2)[C@H](c2ccc(F)c(F)c2)O1 (racemic) [Compound I-77] | < 0.1
3 | COCCN1C[C@@H](NC(=O)Nc2c(C)c(-c3cnc(OC)nc3)nn2-c2ccccc2)[C@H](c2cnc(Cl)s2)O1 (racemic) [Compound I-157] | < 0.1
4 | COCCN1C[C@@H](NC(=O)Nc2c(C)c(-c3cnc(C)nc3)nn2-c2ccccc2)[C@H](c2cnc(F)c(F)c2)O1 (racemic) [Compound I-45] | < 0.1
5 | COCCN1C[C@@H](NC(=O)Nc2c(C)c(-c3cnc(C(=O)NC4CC4)c(C)c3)nn2-c2ccccc2)[C@H](c2ccnc(F)c2)O1 (racemic) [Compound I-169] | < 0.1
6 | COCCN1C[C@@H](NC(=O)Nc2c(C)c(-c3cnc(C)nc3)nn2-c2ccccc2)[C@H](c2cccc(F)c2)O1 (racemic) [Compound I-140] | < 0.1
7 | COCCN1C[C@@H](NC(=O)Nc2c(C)c(-c3cnc4c(c3)ncn4C)nn2-c2ccccc2)[C@H](c2ccccc2)O1 (racemic) [Compound I-161] | < 0.1

same assay, conditions: Table 154, human TrkA inhibition; read-out: IC50

Row | Compound | IC50 [µM]
8 | COCC[C@@H]1C[C@@H](NC(=O)Nc2c(C)c(-c3cnc4c(c3)ncn4C)nn2-c2ccccc2)[C@H](c2ccnc(F)c2)O1 [Compound I-276] | < 0.1
9 | COCCC1C[C@@H](NC(=O)Nc2c(C)c(-c3cnc(COC(=O)C(C)(C)C)nc3)nn2-c2ccccc2)[C@H](c2ccccc2)O1 (stereo partly shown) [Compound I-294] | < 0.1
10 | COCCN1C[C@@H](NC(=O)Nc2c(C)c(-c3cnc(C(=O)NC4CC4)c(C)c3)nn2-c2ccccc2)[C@H](c2cnc(F)c(F)c2)O1 [Compound I-254] | < 0.1
11 | COCCN1C[C@@H](NC(=O)Nc2c(C)c(-c3cnc(N4CC(O)C4)nc3)nn2-c2ccccc2)[C@H](c2cnc(F)c(F)c2)O1 [Compound I-210] | < 0.1
12 | CNC(=O)c1cc(-c2nn(-c3ccc(F)cc3)c(NC(=O)N[C@@H]3CN(CCOC)O[C@H]3c3ccc(F)c(F)c3)c2C)cnc1OC (racemic) [Compound I-183] | < 0.1
13 | COCCN1C[C@@H](NC(=O)Nc2c(C)c(-c3cnc4c(c3)OCCN4C(=O)OC(C)(C)C)nn2-c2ccccc2)[C@H](c2ccnc(F)c2)O1 (racemic) [Compound I-280] | < 0.1
14 | COCCN1C[C@@H](NC(=O)Nc2c(C)c(-c3cnc4c(c3)nc(C(F)(F)F)n4C)nn2-c2ccccc2)[C@H](c2ccnc(F)c2)O1 (racemic) [Compound I-226] | < 0.1
15 | COCCN1C[C@@H](NC(=O)Nc2c(C)c(-c3cnc4c(c3)nc(C(=O)NCCO)n4C)nn2-c2ccccc2)[C@H](c2ccnc(F)c2)O1 (racemic) [Compound I-225] | < 0.1
16 | COCC[C@@H]1C[C@@H](NC(=O)Nc2c(C)c(-c3cnc4c(c3)c(=O)n(C)n4C)nn2-c2ccccc2)[C@H](c2ccc(F)c(F)c2)O1 (racemic) [Compound I-215] | < 0.1
17 | COCCN1C[C@@H](NC(=O)Nc2c(C)c(-c3ccc4nc(C(N)=O)cn4c3)nn2-c2ccccc2)[C@H](c2ccc(F)c(F)c2)O1 [Compound I-310] | < 0.1
18 | COCCN1C[C@@H](NC(=O)Nc2c(C)c(-c3ccc4nc(C(N)=O)cn4c3)nn2-c2ccccc2)[C@H](c2ccnc(F)c2)O1 (racemic) [Compound I-282] | < 0.1
19 | COCCN1C[C@@H](NC(=O)Nc2c(C)c(-c3cnc4c(cnn4CC(F)(F)F)c3)nn2-c2ccccc2)[C@H](c2ccnc(F)c2)O1 (racemic) [Compound I-228] | < 0.1
20 | COCCN1C[C@@H](NC(=O)Nc2c(C)c(-c3cnc4c(c3)[nH]c(=O)n4C)nn2-c2ccccc2)[C@H](c2ccc(F)c(F)c2)O1 [Compound I-218] | < 0.1
21 | Cc1c(-c2cnc3c(cnn3C)c2)nn(-c2ccccc2)c1NC(=O)N[C@@H]1CN(CC(C)(C)CN(C)C)O[C@H]1c1ccc(F)c(F)c1 (racemic) [Compound I-206] | 0.1 to 1

same assay, conditions: Table 155, human TrkA inhibition; read-out: IC50

Row | Compound | IC50 [µM]
22 | COCCN1C[C@@H](NC(=O)Nc2c(C)c(-c3ccc4nc(C)nn4c3)nn2-c2ccccc2)[C@H](c2cnc(F)c(F)c2)O1 [Compound I-363] | < 0.1
23 | COCCN1C[C@@H](NC(=O)Nc2c(C)c(-c3ccncc3)nn2-c2ccccc2)[C@H](c2ccc(F)c(F)c2)O1 [Compound I-466] | < 0.1
24 | COCCN1C[C@@H](NC(=O)Nc2c(C)c(-c3ccc(=O)n(C)c3)nn2-c2ccccc2)[C@H](c2ccnc(F)c2)O1 (racemic) [Compound I-496] | < 0.1
25 | COCCN1C[C@@H](NC(=O)Nc2c(C)c(OCc3ccncc3)nn2-c2ccccc2)[C@H](c2ccnc(F)c2)O1 (racemic) [Compound I-456] | < 0.1
26 | COCCN1C[C@@H](NC(=O)Nc2c(C)c(-c3ccc(OC)nc3)nn2-c2ccccc2)[C@H](c2ccnc(F)c2)O1 (racemic) [Compound I-323] | < 0.1
27 | COCCN1C[C@@H](NC(=O)Nc2c(C)c(-c3cnc(N4CCC5(CC4)COC5)nc3)nn2-c2ccccc2)[C@H](c2ccnc(F)c2)O1 (racemic) [Compound I-484] | < 0.1
28 | COCC[C@@H]1C[C@@H](NC(=O)Nc2c(C)c(-c3cnn(C)c3)nn2-c2ccccn2)[C@H](c2ccc(F)c(F)c2)O1 (racemic) [Compound I-448] | 0.1 to 1
29 | COCCN1C[C@@H](NC(=O)Nc2c(C)c(OCC3COC3)nn2-c2ccccc2)[C@H](c2ccnc(F)c2)O1 (racemic) [Compound I-503] | < 0.1
30 | COCCN1C[C@@H](NC(=O)Nc2c(C)c(-c3cnc(OC)cn3)nn2-c2ccccc2)[C@H](c2ccnc(F)c2)O1 (racemic) [Compound I-352] | < 0.1
31 | COCCN1C[C@@H](NC(=O)Nc2c(C)c(-c3cnc4c(c3)nc(N3CCCC3)n4C)nn2-c2ccccc2)[C@H](c2ccnc(F)c2)O1 (racemic) [Compound I-398] | < 0.1
32 | COCCN1C[C@@H](NC(=O)Nc2c(C)c(-c3cnc4c(c3)N(C)C(CO)CO4)nn2-c2ccccc2)[C@H](c2ccnc(F)c2)O1 (mixture of isomers) [Compound I-338] | < 0.1
33 | COCCN1C[C@@H](NC(=O)Nc2c(C)c(-c3cnc4c(c3)ncn4CC(=O)N3CCN(C)CC3)nn2-c2ccccc2)[C@H](c2ccnc(F)c2)O1 (racemic) [Compound I-400] | < 0.1
34 | CNC(=O)c1ccc(-c2nn(-c3ccccc3)c(NC(=O)N[C@@H]3CN(CCOC)O[C@H]3c3ccnc(F)c3)c2C)cn1 (racemic) [Compound I-452] | < 0.1
35 | CNC(=O)c1cc(-c2nn(-c3ccccc3)c(NC(=O)N[C@@H]3CN(C)O[C@H]3c3ccc(F)c(F)c3)c2C)cnc1OC (racemic) [Compound I-469] | < 0.1
36 | COCCN1C[C@@H](NC(=O)Nc2c(C)c(-c3ccc(N4CCN(CC#N)CC4)nc3)nn2-c2ccccc2)[C@H](c2ccnc(F)c2)O1 (racemic) [Compound I-375] | < 0.1
37 | COCCN1C[C@@H](NC(=O)Nc2c(C)c(-c3cnc4c(c3)c(CN3CCCC3)nn4C)nn2-c2ccccc2)[C@H](c2ccnc(F)c2)O1 (racemic) [Compound I-412] | < 0.1

same assay, conditions: Table 156, human TrkA inhibition; read-out: IC50

Row | Compound | IC50 [µM]
38 | COc1ncc(-c2nn(-c3ccccc3)c(NC(=O)N[C@@H]3CN(CCF)O[C@H]3c3ccc(F)c(F)c3)c2C)cn1 (racemic) [Compound I-525] | < 0.1
39 | CCN1C[C@@H](NC(=O)Nc2c(C)c(-c3cnc(OC)c(C(=O)NC4CCOCC4)c3)nn2-c2ccccc2)[C@H](c2ccc(F)c(F)c2)O1 (racemic) [Compound I-545] | < 0.1
40 | COCCN1C[C@@H](NC(=O)Nc2c(C)c(-c3ccc(OC)nc3)nn2-c2ccccc2)[C@H](c2ccc(F)c(F)c2)O1 [Compound I-516] | < 0.1
41 | COCCN1C[C@@H](NC(=O)Nc2c(C)c(OCC3CNCCO3)nn2-c2ccccc2)[C@H](c2ccc(F)c(F)c2)O1 (single isomer, unassigned) [Compound I-576] | < 0.1
42 | COCCN1C[C@@H](NC(=O)Nc2c(C)c(OC3CN(C(=O)OC(C)(C)C)C3)nn2-c2ccccc2)[C@H](c2ccc(F)c(F)c2)O1 [Compound I-573] | < 0.1
43 | COCCN1C[C@@H](NC(=O)Nc2c(C)c(OCCN(C)C)nn2-c2ccccc2)[C@H](c2ccc(F)c(F)c2)O1 [Compound I-572] | < 0.1

same assay, conditions: Table 157, human TrkA inhibition; read-out: IC50

Row | Compound | IC50 [µM]
44 | CCN1C[C@@H](NC(=O)Nc2c(C)c(OCC(=O)NC3CC3)nn2-c2ccccc2)[C@H](c2ccc(F)c(F)c2)O1 (racemic) [Compound I-648] | < 0.1
45 | COCCN1C[C@@H](NC(=O)Nc2c(C)c(CO[Si](C)(C)C(C)(C)C)nn2-c2ccccc2)[C@H](c2ccc(F)c(F)c2)O1 [Compound I-605] | 0.1 to 1
46 | CCN1C[C@@H](NC(=O)Nc2c(C)c(OCCCC(=O)NCCO)nn2-c2ccccc2)[C@H](c2ccc(F)c(F)c2)O1 (racemic) [Compound I-668] | < 0.1
47 | COCCN1CC(NC(=O)Nc2c(C)c(-c3cnc(N4CC5(CCO5)C4)nc3)nn2-c2ccccc2)C(c2ccnc(F)c2)O1 (racemic) [Compound I-581] | < 0.1
48 | CCN1C[C@@H](NC(=O)Nc2c(C)c(-c3cnc4c(c3)OCCO4)nn2-c2ccccc2)[C@H](c2ccc(F)c(F)c2)O1 (racemic) [Compound I-626] | < 0.1

same assay, conditions: human TrkA 1 nmol/L, ATP 500 μmol/L, 120 min at 37° C.; read-out: IC50 values (TrkA phosphorylation inhibition)

Row | Compound | IC50 [µM]
49 | CNC(=O)c1ncc(-c2nn(-c3ccccc3)c(NC(=O)N[C@@H]3CN(CCOC)O[C@H]3c3cnc(F)c(F)c3)c2C)cc1C [Compound I-253] | 0.0013
50 | COCCN1C[C@@H](NC(=O)Nc2c(C)c(-c3cnn(C)c3)nn2C2CCC2)[C@H](c2ccc(F)c(F)c2)O1 (racemic) [Compound I-146] | 0.33

Now from value to molecule:

Row | IC50 [µM] | Compound
51 | 0.004 | COCCN1C[C@@H](NC(=O)Nc2c(C)c(-c3cnc(OCC(F)F)nc3)nn2-c2ccccc2)[C@H](c2ccnc(F)c2)O1 (racemic) [Compound I-436]
52 | 0.00052 | CNC(=O)c1ccc(-c2nn(-c3ccccc3)c(NC(=O)N[C@@H]3CN(CCOC)O[C@H]3c3ccc(F)c(F)c3)c2C)cn1 [Compound I-458]
